Values quoted from earlier work as cited in publication PMC6253886, “Prodrugs of Thyrotropin-Releasing Hormone and Related Peptides as Central Nervous System Agents” (Molecules, 2009).
Like-named read-outs stand apart in the source and are kept apart here. Marks after values point to notes of the source that are not given here. [ ]: non-standard residue; d: D form. The star is where a group is joined. O(cholesteryl) = CC(C)CCC[C@@H](C)[C@H]1CC[C@H]2[C@@H]3CC=C4C[C@@H](O*)CC[C@]4(C)[C@H]3CC[C@]12C; pGlu = O=C1CC[C@@H](C(=O)O)N1; Dht = not defined here

Tests used:
[1] = IAMC
Text: We utilized again the robust ... || (+ 2 further places)

mice [2] = conditions: for Analeptic Effect: % Decrease in Sleeping Time / Sleeping time (min): 10 µmol/kg i.v.; for Analeptic Effect: % Decrease in Sleeping Time: percent decrease vs saline vehicle counted as 100%; for % Decrease in Sleeping Time / Sleeping time (min): pentobarbital 60 mg/kg i.p. 10 min later; for % Decrease in Sleeping Time: percent of vehicle sleeping time (54.9 ±3.8 min); for Sleeping time (min): saline vehicle 80±2 min
Description: Table 1 Barbiturate-induced sleeping times in mice after the administration of [Leu^2]TRH and its produgs having various spacers (S). Sleeping time decrease is expressed as percent of sleeping time for vehicle administration only (54.9 ±3.8 min). […] Values are expressed as percent decrease compared to those of saline vehicle that was counted as 100%. *Statistically significant difference from saline control (ANOVA followed by Dunnett’s, P < 0.05, n=6–16). Repri | column: Analeptic Effect:% Decrease in Sleeping Time || (+ 5 further places)

mice [3] = conditions: 3 µmol/kg i.v., percent decrease vs saline vehicle counted as 100%, n=6–16
Text: Table 4 Comparison of analeptic (equimolar dose of 10 µmol/kg body weight, i.v.) and antidepressant (equimolar dose of 3 of µmol/kg body weight, i.v) effects of test compounds in mice. Values are expressed as percent decrease compared to those of saline vehicle that was counted as 100%. *Statistically significant difference from saline control (ANOVA followed by Dunnett’s, P < 0.05, n=6–16). Repri | column: Porsolt Swim Test:% Decrease in Immobility

[4] = molecular target: TRH receptor (Rattus norvegicus) (UniProt Q01717); experiment: radioligand competition
TRH receptors = conditions: review statement
Text: (§1) Many pharmacological activities of this peptide are similar to those of TRH [54]; however, the beneficial effects after treatment with [Glu^2]TRH are reportedly more robust or prolonged. These advantages are probably due to the increased resistance of this peptide to enzymes principally responsible for the rapid degradation of TRH in vivo [40].

[5] = system: triiodothyronine (T3) levels; conditions: review statement
Text: as §1

[6] = remark: listed apart in the source
Description: Studies in rodents and humans have shown that this tripeptide has a very short (6–10 min) half-life in plasma. The rapid degradation in this medium is mainly due to the action of pyroglutamyl aminopeptidases. Additionally, this highly hydrophilic molecule (logP = –2.46) also lacks its own active BBB transport system; thus, high doses of the peptide unavoidably manifesting a profound and undesired hormonal (endocrine) effect would be required for CNS application. Therefore, dissociation of endocrine and CNS actions of TRH is a crucial issue in designing TRH analogues a ... || A centrally selective natural analogue of TRH is [Leu^2]TRH (pGlu-Leu-Pro-NH2, Figure 1), in which the central His of TRH is replaced with Leu. […] Therefore, we selected this tripeptide for substantiating our brain-targeting prodrug approach. […] The amino- and carbox ...

[7] = remark: listed apart in the source
Text: A centrally selective natural analogue of TRH is [Leu^2]TRH (pGlu-Leu-Pro-NH2, Figure 1), in which the central His of TRH is replaced with Leu. […] Therefore, we selected this tripeptide for substantiating our brain-targeting prodrug approach. […] The amino- and carbox ...

[8] = rodents and humans
Description: Studies in rodents and humans have shown that this tripeptide has a very short (6–10 min) half-life in plasma. The rapid degradation in this medium is mainly due to the action of pyroglutamyl aminopeptidases. Additionally, this highly hydrophilic molecule (logP = –2.46) also lacks its own active BBB transport system; thus, high doses of the peptide unavoidably manifesting a profound and undesired hormonal (endocrine) effect would be required for CNS application. Therefore, dissociation of endocrine and CNS actions of TRH is a crucial issue in designing TRH analogues a ...

[9] = system: receptor labeled by [3H][3-Me-His2]TRH; conditions: [3H][3-Me-His2]TRH-labeled receptor, rat brain pellets
Text: (§2) Replacement of [His^2] practically aboli ...

[10] = mouse plasma
Text: as §2

[11] = k’IAM = (tR-t0)/t0, t0 = retention time of [Glu^2]TRH as dead-volume marker

Sequence of TRH receptor (Rattus norvegicus) (Q01717 whole entry): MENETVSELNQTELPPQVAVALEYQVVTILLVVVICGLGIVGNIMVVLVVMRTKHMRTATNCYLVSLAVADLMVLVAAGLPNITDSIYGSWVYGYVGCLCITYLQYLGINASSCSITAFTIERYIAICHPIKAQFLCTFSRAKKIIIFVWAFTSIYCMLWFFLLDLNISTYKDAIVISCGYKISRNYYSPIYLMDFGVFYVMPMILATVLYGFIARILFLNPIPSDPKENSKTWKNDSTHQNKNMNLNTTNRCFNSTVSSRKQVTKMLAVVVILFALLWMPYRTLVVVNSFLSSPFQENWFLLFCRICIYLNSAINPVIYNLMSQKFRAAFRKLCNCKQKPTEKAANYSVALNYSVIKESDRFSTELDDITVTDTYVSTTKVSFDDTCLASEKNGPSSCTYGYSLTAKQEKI
Sequence of TRH (P01150 whole entry, looked up): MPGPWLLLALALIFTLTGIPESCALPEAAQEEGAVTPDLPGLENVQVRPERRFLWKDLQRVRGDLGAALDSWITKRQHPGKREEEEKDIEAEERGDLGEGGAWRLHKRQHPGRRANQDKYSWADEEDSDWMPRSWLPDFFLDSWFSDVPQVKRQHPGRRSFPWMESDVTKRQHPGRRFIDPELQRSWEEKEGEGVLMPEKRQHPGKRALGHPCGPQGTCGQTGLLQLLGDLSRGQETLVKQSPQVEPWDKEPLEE

## Dht-Glu(OH)-Pro-NH2 [neutral prodrug without the ester function on the side-chain of the central residue]
[1]
  improvement of affinity to membrane lipids compared to the ionic analogue: three- to five-fold
[1]; [Trig^1] analogue prodrugs
  k’IAM: 0.4

## Dht-Glu(OHex)-Pro-NH2 [hexyl ester prodrug of Trig-Glu(OH)-Pro-NH2]
mouse
  t1/2 of hydrolysis of the ester: 27 min
Mice [2]; n=6–16
  Analeptic Effect: % Decrease in Sleeping Time: 18 ± 2%
Mice [2]; n=6–16, listed as Dht-Glu(OHex)–Pro-NH2
  Analeptic Effect: % Decrease in Sleeping Time: 18±2* %
[1]; [Trig^1] analogue prodrugs
  k’IAM: 28.6
Mice [3]
  Porsolt Swim Test: % Decrease in Immobility: 43±3* %

## Prodrug, S= Ala-Ala: [Leu^2]TRH brain-targeting prodrug: Dht attached through spacer Ala-Ala to Gln-Leu-Pro-Gly, carboxy-terminus esterified with cholesterol (Dht-AAQLPG-{O(cholesteryl)}; reading uncertain)
Mice [2]; 15 µmol/kg i.v.
  % Decrease in Sleeping Time: 32 ± 4* %

## Prodrug, S= Ala: [Leu^2]TRH brain-targeting prodrug: Dht attached through spacer Ala to Gln-Leu-Pro-Gly, carboxy-terminus esterified with cholesterol (Dht-AQLPG-{O(cholesteryl)}; reading uncertain)
Mice [2]; 15 µmol/kg i.v.
  % Decrease in Sleeping Time: 30 ± 3* %

## Prodrug, S= Pro-Ala: [Leu^2]TRH brain-targeting prodrug: Dht attached through spacer Pro-Ala to Gln-Leu-Pro-Gly, carboxy-terminus esterified with cholesterol (Dht-PAQLPG-{O(cholesteryl)}; reading uncertain)
Mice [2]; 15 µmol/kg i.v.
  % Decrease in Sleeping Time: 56 ± 4** %

## Prodrug, S= Pro-Pro: [Leu^2]TRH brain-targeting prodrug: Dht attached through spacer Pro-Pro to Gln-Leu-Pro-Gly, carboxy-terminus esterified with cholesterol (Dht-PPQLPG-{O(cholesteryl)}; reading uncertain)
Mice [2]; 15 µmol/kg i.v.
  % Decrease in Sleeping Time: 55 ± 7** %

## Prodrug, S= Pro: [Leu^2]TRH brain-targeting prodrug: Dht attached through spacer Pro to Gln-Leu-Pro-Gly, carboxy-terminus esterified with cholesterol (Dht-PQLPG-{O(cholesteryl)}; reading uncertain)
Mice [2]; 15 µmol/kg i.v.
  % Decrease in Sleeping Time: 47 ± 6** %

## TRH (from UniProt P01150)
[4]
  Ki: 42 nM

## Trig-Glu(OHex)-Pro-NH2 [hexyl ester of the designed [Trig^1] analogue of [Glu^2]TRH]
Mice [2]; n=6–16
  Analeptic Effect: % Decrease in Sleeping Time: 1±3%
Mice [2]; i.v., ionic compound without reduction of Trig to Dht
  pharmacological (analeptic) response, in words: no pharmacological response was observed
Mice [3]
  Porsolt Swim Test: % Decrease in Immobility: 2±1%

## [pGlu]-Glu-Pro-NH2 [[Glu^2]TRH, TRH-like endogenous tripeptide, reference compound]
Mice [2]
  Sleeping time (min): 65±3* min
[1]; [11]
  k’IAM: 0
TRH receptors
  binding to TRH receptors, in words: practically does not bind to TRH receptors
[5]
  effect on triiodothyronine (T3) levels, in words: does not elevate triiodothyronine (T3) levels

## [pGlu]-Leu-Pro-NH2 [[Leu^2]TRH, reference compound]
Mice [2]; 15 µmol/kg i.v.
  % Decrease in Sleeping Time: 17 ± 7%
[6]
  logP: –1.67
[7]
  increase in typical TRH-associated analeptic effect compared to TRH: approximately 2.5 fold

## pGlu-Glu(OHex)-Pro-NH2 [R=Hex, n-hexyl ester prodrug of [Glu^2]TRH on the γ-COOH of Glu]
mouse
  t1/2: ~22 min
Mice [2]
  Sleeping time (min): 50±2** min
Mice [2]; n=6–16
  Analeptic Effect: % Decrease in Sleeping Time: 37±3* %
Mice [2]; i.v.
  ED50 (analeptic effect, dose-response): around 2 µmol/kg body weight
[1]; [11]
  k’IAM: 16.0
Mice [3]
  Porsolt Swim Test: % Decrease in Immobility: 44±2* %

## pGlu-His-Pro-NH2 [TRH, thyrotropin-releasing hormone, native tripeptide]
[8]
  half-life in plasma: 6 to 10 min
Mouse brain homogenate (20%, w/v)
  half-life: 16 min
Mice [2]; 15 µmol/kg i.v., pentobarbital 60 mg/kg i.p. given 60 min post drug vs 10 min, Figure 6
  duration of the analeptic action, in words: loss of over half of CNS-activity
[1]; TRH, pyridinium analogues and their prodrugs
  k’IAM: 0.51
[6]; logarithm of the n-octanol/water partition coefficient, review, no reference given for the value
  logP: –2.46
[9]
  binding affinity: 42 nM
[10]
  half-life: 11 min
